Reference: ChEMBL document CHEMBL1201862, “PubChem BioAssay data set” (2004)
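These data come from cells grown in 96-well plates and exposed to compound for 48 hours at five concentrations. At the GI50, growth is halved.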 Calls of active or inactive are those of the source. Cut-off read from the data, not from the text of the source: active = GI50 up to about 1.1 µM and inactive = higher.

What was measured:
Experiment in all cases: NCI anticancer screen, dose series, 48 h
SK-MEL-2 = system: SK-MEL-2
A498 = system: A498
HT-29 = system: HT-29
SNB-75 = system: SNB-75
ACHN = system: ACHN
OVCAR-3 = system: OVCAR-3
NCI/ADR-RES = system: NCI/ADR-RES
NCI-H23 = system: NCI-H23
K562 = system: K562
MDA-MB-231 = system: MDA-MB-231
Malme-3M = system: Malme-3M
NCI-H522 = system: NCI-H522
SK-OV-3 = system: SK-OV-3
T47D = system: T47D
OVCAR-8 = system: OVCAR-8
HCT-15 = system: HCT-15
UACC-62 = system: UACC-62
SNB-19 = system: SNB-19
UO-31 = system: UO-31
COLO 205 = system: COLO 205
MDA-MB-435 = system: MDA-MB-435
NCI-H226 = system: NCI-H226
786-0 = system: 786-0
PC-3 = system: PC-3
SF-295 = system: SF-295
CAKI-1 = system: CAKI-1
A549 = system: A549
UACC-257 = system: UACC-257
SF-539 = system: SF-539
HOP-92 = system: HOP-92
HCC 2998 = system: HCC 2998
SK-MEL-5 = system: SK-MEL-5
U-251 = system: U-251
TK-10 = system: TK-10
RPMI-8226 = system: RPMI-8226
MCF7 = system: MCF7
HCT-116 = system: HCT-116
EKVX = system: EKVX
LOX IMVI = system: LOX IMVI
KM12 = system: KM12
SN12C = system: SN12C
IGROV-1 = system: IGROV-1
HOP-62 = system: HOP-62
BT-549 = system: BT-549
HL-60 = system: HL-60
OVCAR-5 = system: OVCAR-5
M14 = system: M14
SK-MEL-28 = system: SK-MEL-28
MDA-N = system: MDA-N
OVCAR-4 = system: OVCAR-4
CCRF-CEM = system: CCRF-CEM
SR = system: SR
SW-620 = system: SW-620
MOLT-4 = system: MOLT-4

`CCCNc1c(Cl)cc(Cl)c2[nH]c3ccccc3c(=O)c12` was tested. Which GI50 (SK-MEL-2) did it give?
The GI50 was 39.9 µM (inactive).

And the GI50 (A498)?
Its GI50 is 29.7 µM (inactive).

And the GI50 (HT-29)?
The GI50 was 22.5 µM (inactive).

And the GI50 (SNB-75)?
Its GI50 is 31.5 µM (inactive).

And the GI50 (ACHN)?
The GI50 was 24 µM (inactive).

What about the GI50 (OVCAR-3) of the same compound?
The GI50 was 48.2 µM (inactive).

What about the GI50 (NCI/ADR-RES) of the same compound?
Its GI50 is > 100 µM (inactive).

What about the GI50 (NCI-H23) of the same compound?
The GI50 was 27.7 µM (inactive).

What about the GI50 (K562) of the same compound?
Its GI50 is 28.3 µM (inactive).

And the GI50 (MDA-MB-231)?
The GI50 was 77.1 µM (inactive).

And the GI50 (Malme-3M)?
The GI50 was 43.3 µM (inactive).

What about the GI50 (NCI-H522) of the same compound?
Its GI50 is 37.1 µM (inactive).

And the GI50 (SK-OV-3)?
Its GI50 is 75.9 µM (inactive).

What about the GI50 (T47D) of the same compound?
The GI50 was > 100 µM (inactive).

And the GI50 (OVCAR-8)?
Its GI50 is 40.3 µM (inactive).

And the GI50 (HCT-15)?
Its GI50 is 98.6 µM.

And the GI50 (UACC-62)?
The GI50 was 45.5 µM (inactive).

What about the GI50 (SNB-19) of the same compound?
Its GI50 is 18.4 µM (inactive).

And the GI50 (UO-31)?
Its GI50 is 32.1 µM (inactive).

And the GI50 (COLO 205)?
Its GI50 is 42 µM (inactive).

And the GI50 (MDA-MB-435)?
Its GI50 is 39.9 µM (inactive).

What about the GI50 (NCI-H226) of the same compound?
Its GI50 is 38.2 µM (inactive).

And the GI50 (786-0)?
The GI50 was 30.2 µM (inactive).

And the GI50 (PC-3)?
Its GI50 is 37.1 µM (inactive).

And the GI50 (SF-295)?
Its GI50 is 34.8 µM (inactive).

What about the GI50 (CAKI-1) of the same compound?
Its GI50 is 62.5 µM (inactive).

And the GI50 (A549)?
Its GI50 is 35.1 µM (inactive).

What about the GI50 (UACC-257) of the same compound?
The GI50 was 48.3 µM (inactive).

What about the GI50 (SF-539) of the same compound?
The GI50 was 32.4 µM (inactive).

And the GI50 (HOP-92)?
Its GI50 is 3.42 µM (inactive).

What about the GI50 (HCC 2998) of the same compound?
Its GI50 is 41.3 µM (inactive).

And the GI50 (SK-MEL-5)?
The GI50 was 32.7 µM (inactive).

And the GI50 (U-251)?
Its GI50 is 37.1 µM (inactive).

And the GI50 (TK-10)?
The GI50 was 51.3 µM (inactive).

What about the GI50 (RPMI-8226) of the same compound?
The GI50 was 30.8 µM (inactive).

What about the GI50 (MCF7) of the same compound?
The GI50 was 28.4 µM (inactive).

What about the GI50 (HCT-116) of the same compound?
The GI50 was 43.6 µM (inactive).

What about the GI50 (EKVX) of the same compound?
The GI50 was 35.6 µM (inactive).

What about the GI50 (LOX IMVI) of the same compound?
Its GI50 is 33.7 µM (inactive).

And the GI50 (KM12)?
The GI50 was 27.2 µM (inactive).

What about the GI50 (SN12C) of the same compound?
The GI50 was 95.9 µM (inactive).

What about the GI50 (IGROV-1) of the same compound?
The GI50 was 24.5 µM (inactive).

What about the GI50 (HOP-62) of the same compound?
Its GI50 is 56.1 µM (inactive).

And the GI50 (BT-549)?
The GI50 was 75.3 µM (inactive).

What about the GI50 (HL-60) of the same compound?
Its GI50 is 16.2 µM (inactive).

What about the GI50 (OVCAR-5) of the same compound?
The GI50 was > 100 µM (inactive).

And the GI50 (M14)?
Its GI50 is 55.7 µM (inactive).

What about the GI50 (SK-MEL-28) of the same compound?
Its GI50 is > 100 µM (inactive).

And the GI50 (MDA-N)?
The GI50 was 50.6 µM (inactive).

And the GI50 (OVCAR-4)?
The GI50 was > 100 µM (inactive).

And the GI50 (CCRF-CEM)?
The GI50 was 49.3 µM (inactive).

What about the GI50 (SR) of the same compound?
Its GI50 is 58.3 µM (inactive).

What about the GI50 (SW-620) of the same compound?
The GI50 was 88.5 µM (inactive).

What about the GI50 (MOLT-4) of the same compound?
The GI50 was 32.5 µM (inactive).
